The values below come from ChEMBL document CHEMBL4610096, “Anti-inflammatory neo-Clerodane Diterpenoids from Ajuga pantantha” (J Nat Prod, 2020).

The test system of data set [1] is BV-2. The data set is described as follows: Cytotoxicity against mouse BV2 cells assessed as reduction in cell viability. It counts as cell-based.
The subject of data set [2] is BV-2. The experiment in a line: Antiinflammatory activity in mouse BV2 cells assessed as reduction in LPS-induced nitric oxide production by griess assay. Format: functional, cell-based.
In data set [3] the test system is BV-2. The data set is described as follows: Antiinflammatory activity in mouse BV2 cells assessed as reduction in LPS-induced iNOS expression at 10 to 100 uM preincubated for 30 mins followed by LPS stimulation and measured after 24 hrs by Western blot analysis. It counts as functional, cell-based.
Data set [4] deals with BV-2. The experiment in a line: Antiinflammatory activity in mouse BV2 cells assessed as reduction in LPS-induced COX2 expression at 10 to 100 uM preincubated for 30 mins followed by LPS stimulation and measured after 24 hrs by Western blot analysis. It counts as functional, cell-based. On the technique in general: Immunoblotting shows a protein as a band on a membrane.

The source made the active and inactive calls. The calls are words filed in the database; no cut-off is given here. A value given as a limit tells only on which side of the number the result lay.

What is called IC50 is the concentration that gives 50% inhibition.

`COC(=O)C/C(C=O)=C\C[C@@]1(C)[C@H](C)C[C@H](OC(C)=O)[C@]2(COC(C)=O)[C@@H]1[C@H](O)CC[C@]21CO1`: the Activity result with BV-2 [1] is listed as “Non-Toxic”. Also, the IC50 in the data set with BV-2 [2] was > 100 µM.
As to `C/C=C(\C)C(=O)O[C@@H](C[C@@]1(C)[C@H](C)C[C@H](O)[C@]2(C)[C@@H]1CCC[C@H]2C(=O)OC)C1=CC(=O)OC1`, in the data set with BV-2 [1], the Activity entry is listed as “Non-Toxic”. In addition, the outcome with BV-2 [3] and in the data set with BV-2 [4] was Active. The 50% inhibitory concentration (IC50) in the data set on BV-2 [2] was 25.8 µM.
Consider `CC[C@H](C)C(=O)O[C@@H](C[C@@]1(C)[C@H](C)C[C@H](O)[C@]2(C)[C@@H]1CCC[C@H]2C(=O)OC)C1=CC(=O)OC1`, for which the Activity entry in the data set on BV-2 [1] is reported as “Non-Toxic”. For the same compound, in the data set on BV-2 [2], the IC50 stood at 45 µM.
For `C/C=C(\C)C(=O)OC[C@@]12[C@H](CCC[C@]1(O)CCl)[C@@](C)(CCC1=CC(=O)OC1)[C@H](C)C[C@@H]2O`, the Activity entry with BV-2 [1] is “Non-Toxic”. The outcome with BV-2 [3] and with BV-2 [4] was Active. Besides, the IC50 in the data set with BV-2 [2] amounted to 20.2 µM.
As for `CSC(=N)N`, the IC50 in the data set on BV-2 [2] stood at 2.4 µM.
